The values that follow come from patent US7935722B2 (Eli Lilly and Company, priority 2005, dated 2011).

Where two headings read alike, the source gives them in different places.

In data set [1] the target is T1, human androgen receptor (AR) (Homo sapiens, UniProt P10275).
T1 construct: expressed in transfected cells; host or cells: mouse myoblast C2C12 cells, transiently co-transfected
T1 sequence (P10275 1-920): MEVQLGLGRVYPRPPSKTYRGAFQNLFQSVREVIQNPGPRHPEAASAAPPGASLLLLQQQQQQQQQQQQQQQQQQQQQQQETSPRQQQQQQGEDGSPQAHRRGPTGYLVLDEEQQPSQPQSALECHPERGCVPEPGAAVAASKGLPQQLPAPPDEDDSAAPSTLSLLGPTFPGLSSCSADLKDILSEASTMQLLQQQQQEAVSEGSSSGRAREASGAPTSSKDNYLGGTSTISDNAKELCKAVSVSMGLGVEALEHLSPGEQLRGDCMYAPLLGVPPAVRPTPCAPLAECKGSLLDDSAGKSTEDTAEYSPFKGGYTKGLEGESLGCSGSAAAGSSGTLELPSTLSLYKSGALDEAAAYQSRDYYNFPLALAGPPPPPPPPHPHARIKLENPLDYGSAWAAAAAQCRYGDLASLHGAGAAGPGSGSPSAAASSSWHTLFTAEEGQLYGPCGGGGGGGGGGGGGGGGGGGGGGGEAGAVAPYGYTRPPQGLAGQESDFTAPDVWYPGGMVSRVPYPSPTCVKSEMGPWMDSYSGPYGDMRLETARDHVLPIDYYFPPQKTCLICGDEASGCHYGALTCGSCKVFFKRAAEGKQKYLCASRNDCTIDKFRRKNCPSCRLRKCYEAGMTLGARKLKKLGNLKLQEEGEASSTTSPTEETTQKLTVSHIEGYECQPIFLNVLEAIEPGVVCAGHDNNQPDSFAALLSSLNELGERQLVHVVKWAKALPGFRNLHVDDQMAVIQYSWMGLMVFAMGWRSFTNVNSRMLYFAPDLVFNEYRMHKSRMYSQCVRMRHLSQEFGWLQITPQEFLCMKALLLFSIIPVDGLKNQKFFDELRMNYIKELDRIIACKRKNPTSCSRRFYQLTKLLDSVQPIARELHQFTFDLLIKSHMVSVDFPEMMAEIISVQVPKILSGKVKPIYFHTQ
Description: C2C12 AR/ARE reporter assay. It counts as cell-based. A digest of the protocol:
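Mouse C2C12 myoblasts co-transfected with AR/ARE reporter were plated in charcoal-stripped serum and treated for 48 h with compound from about 0.01 nM to 10 μM. Luciferase activity gave EC50 by 4-parameter logistic fit. Efficacy is expressed as % of maximal stimulation by 10 nM methyltrienolone.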

Data set [2] concerns the target T2, human AR (androgen receptor) (Homo sapiens, UniProt P10275).
T2 construct: expressed in transfected cells; host or cells: 293 cells (293-AR lysate)
T2 sequence (P10275 1-920): T1 sequence (P10275 1-920)
Put plainly: Steroid hormone nuclear receptor binding assay, AR binding. The gist of the method: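 Competition binding with lysates of 293 cells overexpressing human AR, [3H]-methyltrienolone tracer, compounds from about 0.01 nM to 10 μM, overnight at 4 °C; non-specific binding set with 500 nM methyltrienolone. Bound tracer counted by scintillation after charcoal-dextran separation; IC50 converted to Ki by Cheng-Prusoff using Kd from saturation binding.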

The mark [3] stands for this setting: C2C12, read-out: C2C12 % Efficacy.
Setting [4] is: C2C12 AR/ARE reporter assay, average of n trials, read-out: C2C12 % Efficacy.
Where [5] appears, read: C2C12 AR/ARE reporter assay, average of n trials, read-out: C2C12 EC50.
Setting [6] is: average of n trials, read-out: AR binding Ki.

With `CC(C)C(=O)NC1CCc2c(c3cc(C#N)ccc3n2Cc2ccc(F)cn2)C1` (stereo not shown) [Example 181, N-[6-Cyano-9-(5-fluoro-pyridin-2-ylmethyl)-2,3,4,9-tetrahydro-1H-carbazol-3-yl]-isobutyramide], the melting point is 235 to 238 °C (dec.). The EC50 in data set [1] came out at 87.8 nM. Also, in data set [1] (setting [3]), the Emax stood at 93.5%. Affinity in data set [2] was put at a Ki of 34.6 nM.

In turn, `Cc1ccc2c(c1)c1c(n2Cc2cccc(Cl)c2)CCC(NC(=O)C(C)C)C1` (stereo not shown) [Example 48] had a melting point of 190 to 192 °C. Moreover, the EC50 in data set [1] is 116 nM. Moreover, in data set [1] (setting [3]), the Emax is 69.5%. The compound also returned a Ki in data set [2] of 9.4 nM.

Turning to `CC(C)C(=O)NC1CCc2c(c3cc(Cl)ccc3n2Cc2cccc(C#N)c2)C1` (stereo not shown) [Example 24], the melting point was 225 to 228 °C (dec.). In data set [1] (setting [3]), the Emax turned out to be 48.9%.

Regarding `CC(C)C(=O)NC1CCc2c(c3cc(F)ccc3n2Cc2ccc(C#N)cc2)C1` (stereo not shown) [Example 14], the melting point fell in the range of 181 to 184 °C. This compound registered a half-maximal effective concentration (EC50) in data set [1] of 927 nM. In addition, the Emax in data set [1] (setting [3]) was found to be 36.4%. Besides, the Ki in data set [2] turned out to be 81.4 nM.

`CC(C)C(=O)NC1CCc2c(c3cc(F)ccc3n2Cc2cccc(C#N)c2)C1` (stereo not shown) [Example 11] yielded a melting point of 184 to 186 °C. In data set [1], this compound registered an EC50 of 2180 nM. For the same compound, the Emax in data set [1] (setting [3]) came out at 36.3%. This compound also registered a Ki in data set [2] of 61.5 nM.

Turning to `CO/N=C/c1ccc2c(c1)c1c(n2Cc2ccccn2)CCC(NC(=O)C2CC2)C1` (stereo not shown) [Example 207, Cyclopropanecarboxylic acid[6-(1-methoxyimino-methyl)-9-pyridin-2-ylmethyl-2,3,4,9-tetrahydro-1H-carbazol-3-yl]-amide], the melting point fell in the range of 88 to 92 °C. The compound also came in with an EC50 in data set [1] of 11.6 nM. In addition, the Emax in data set [1] (setting [3]) came out at 93.3%. In data set [2], this compound had a Ki of 41.6 nM.

With `CC(C)C(=O)NC1CCc2c(c3cc(Cl)ccc3n2Cc2ccc(Cl)cc2)C1` (stereo not shown) [Example 26], the melting point lay in the range of 176 to 178 °C. Also, it took 301 nM to reach a half-maximal effect in data set [1] (EC50). Further, the Emax in data set [1] (setting [3]) stood at 33%. This compound also had a Ki in data set [2] of 16.6 nM.

With `Cc1cc(-c2ccc3c(c2)c2c(n3Cc3cccc(F)c3)CC[C@@H](NC(=O)C3CC3)C2)no1` [Example 204, (R)-Cyclopropanecarboxylic acid[9-(3-fluoro-benzyl)-6-(5-methyl-isoxazol-3-yl)-2,3,4,9-tetrahydro-1H-carbazol-3-yl]-amide], the melting point lay in the range of 190 to 192 °C. Moreover, in data set [1], the EC50 came out at 2.7 nM. Moreover, the Emax in data set [1] (setting [3]) worked out at 90.8%. In addition, the Ki in data set [2] was 6.8 nM.

In the case of `COc1ccc2c(c1)c1c(n2Cc2ccccc2)CCC(NC(C)=O)C1` (stereo not shown) [Example 65, N-(9-Benzyl-6-methoxy-2,3-4,9-tetrahydro-1H-carbazol-3-yl)-acetamide], the melting point was 184 to 185 °C. For the same compound, the Emax in data set [1] (setting [4]) amounted to 87.3%. Moreover, the EC50 in data set [1] (setting [5]) stood at 40.5 nM. Also, the Ki in data set [2] (setting [6]) was found to be 58.4 nM.

On to `Cc1ccc2c(c1)c1c(n2Cc2ccccc2)CCC(NC(=O)C(C)C)C1` (stereo not shown) [Example 42], for which the melting point was 197 to 199 °C. Besides, the EC50 in data set [1] was determined as 30.4 nM. For the same compound, the Emax in data set [1] (setting [3]) turned out to be 73%. This compound also returned a Ki in data set [2] of 63.6 nM.

Regarding `CC(C)C(=O)NC1CCc2c(c3cc(S(C)(=O)=O)ccc3n2Cc2cccc(F)c2)C1` (stereo not shown) [Example 53], the melting point was 205 to 207 °C. This compound also came in with an EC50 in data set [1] of 24.3 nM. Also, the Emax in data set [1] (setting [3]) came to 107%. Moreover, in data set [2], the Ki is 21.6 nM.

The compound `COc1ccc(Cn2c3c(c4cc(Cl)ccc42)CC(NC(=O)C(C)C)CC3)cc1` (stereo not shown) [Example 27] registered a melting point of 182 to 184 °C. Moreover, the Emax in data set [1] (setting [3]) was 23.2%. In data set [2], this compound had a Ki of 45.8 nM.

Take `CC(C)C(=O)NC1CCc2c(c3cc(Br)ccc3n2Cc2cccc(Cl)c2)C1` (stereo not shown) [Example 36]: the melting point is 186 to 188 °C. This compound had an EC50 in data set [1] of 20.7 nM. Besides, in data set [1] (setting [3]), the Emax came to 99.4%. This compound gave a Ki in data set [2] of 7.6 nM.

Regarding `CC(C)C(=O)N[C@@H]1CCc2c(c3cc(Br)ccc3n2Cc2cccc(F)c2)C1` [Example 122], the melting point lay in the range of 204 to 207 °C.

Compound `CC(C)C(=O)NC1CCc2c(c3cc(F)ccc3n2Cc2ccccc2C#N)C1` (stereo not shown) [Example 7] had a melting point of 164 to 167 °C. The Emax in data set [1] (setting [3]) is 35.8%. In addition, the Ki in data set [2] came out at 99.6 nM.

As for `CC(C)C(=O)NC1CCc2c(c3cc(F)ccc3n2Cc2ccccc2F)C1` (stereo not shown) [Example 4], the melting point lay within 156 to 158 °C. The Emax in data set [1] (setting [3]) was determined as 36.1%.

The compound `CC(C)C(=O)NC1CCc2c(c3cc(Br)ccc3n2Cc2ccccc2Cl)C1` (stereo not shown) [Example 32] registered a melting point of 196 to 198 °C. Further, in data set [1] (setting [3]), the Emax was found to be 94.3%.

`COc1ccccc1Cn1c2c(c3cc(Br)ccc31)CC(NC(=O)C(C)C)CC2` (stereo not shown) [Example 34] yielded a melting point of 108 to 111 °C. Also, the Emax in data set [1] (setting [3]) turned out to be 103%.

With `CC(C)C(=O)NC1CCc2c(c3ccc(Cl)cc3n2Cc2cccc(F)c2)C1` (stereo not shown) [Example 56], the melting point fell in the range of 233 to 235 °C. Also, in data set [1] (setting [3]), the Emax amounted to 66.6%.

In the case of `CC(C)C(=O)NC1CCc2c(c3cc(C#N)ccc3n2Cc2cccc(F)c2)C1` (stereo not shown) [Example 51, N-(6-cyano-9-(3-fluorobenzyl)-2,3,4,9-tetrahydro-1H-carbazol-3-yl)isobutyramide], the melting point lay in the range of 195 to 199 °C. Moreover, the Emax in data set [1] (setting [3]) was 87.5%.

In turn, `CC(C)C(=O)NC1CCc2c(c3cc(Cl)ccc3n2Cc2cccc(F)c2)C1` (stereo not shown) [Example 21] came in with a melting point of 187 to 189 °C. For the same compound, the Emax in data set [1] (setting [3]) was determined as 81%.

On to `CC(C)C(=O)NC1CCc2c(c3cc(Cl)ccc3n2Cc2cc(F)cc(F)c2)C1` (stereo not shown) [Example 29], for which the melting point lay within 207 to 210 °C. Also, the Emax in data set [1] (setting [3]) was 64%.

`CC(C)C(=O)NC1CCc2c(c3cc(Cl)ccc3n2Cc2ccccc2)C1` (stereo not shown) [Example 16] showed a melting point of 174 to 176 °C. Besides, in data set [1] (setting [3]), the Emax was determined as 86%.

Compound `CC(C)C(=O)NC1CCc2c(c3cccc(F)c3n2Cc2cccc(F)c2)C1` (stereo not shown) [Example 58] displayed a melting point of 185 to 188 °C. Further, the Emax in data set [1] (setting [3]) worked out at 62.1%.

Consider `COc1cccc(Cn2c3c(c4cc(Cl)ccc42)CC(NC(=O)C(C)C)CC3)c1` (stereo not shown) [Example 23], for which the melting point fell in the range of 178 to 181 °C. For the same compound, the Emax in data set [1] (setting [3]) was 54.4%.

`Cc1ccc2c(c1)c1c(n2Cc2cccc(F)c2)CCC(NC(=O)C(C)C)C1` (stereo not shown) [Example 47] registered a melting point of 215 to 217 °C. For the same compound, in data set [1] (setting [3]), the Emax was determined as 86.3%.

As to `CC(C)C(=O)NC1CCc2c(c3cc(Cl)ccc3n2Cc2ccc(F)cc2)C1` (stereo not shown) [Example 25], the melting point was 175 to 178 °C. Further, the Emax in data set [1] (setting [3]) is 62.7%.

`CC(C)C(=O)NC1CCc2c(c3cc(Br)ccc3n2Cc2ccccc2)C1` (stereo not shown) [Example 30]: the melting point is 173 to 177 °C. The Emax in data set [1] (setting [3]) came to 87%.

Take `CCOc1ccc2c(c1)c1c(n2Cc2cccc(F)c2)CCC(NC(=O)C(C)C)C1` (stereo not shown) [Example 93, N-[6-Ethoxy-9-(3-fluoro-benzyl)-2,3,4,9-tetrahydro-1H-carbazol-3-yl]-isobutyramide]: the EC50 in data set [1] worked out at 5 nM. Moreover, the Emax in data set [1] (setting [3]) turned out to be 82.4%. Besides, the Ki in data set [2] was 6.8 nM.

As to `COC(=O)NC1CCc2c(c3cc(OC(F)(F)F)ccc3n2Cc2cccc(F)n2)C1` (stereo not shown) [Example 164], the Emax in data set [1] (setting [4]) worked out at 41.8%. For the same compound, the EC50 in data set [1] (setting [5]) was 1230 nM. Also, the Ki in data set [2] (setting [6]) came out at 42.3 nM.

In data set [1], `CC(C)C(=O)NC1CCc2c(c3cc(C=O)ccc3n2Cc2cccc(F)c2)C1` (stereo not shown) [Example 197, N-[9-(3-Fluoro-benzyl)-6-formyl-2,3,4,9-tetrahydro-1H-carbazol-3-yl]-isobutyramide] came in with an EC50 of 26.8 nM. The Emax in data set [1] (setting [3]) was 147%. The Ki in data set [2] was found to be 4.2 nM.

In turn, `CC(C)C(=O)NC1CCc2c(c3cc(C#N)ccc3n2Cc2cncs2)C1` (stereo not shown) [Example 159, N-(6-Cyano-9-thiazol-5-ylmethyl-2,3,4,9-tetrahydro-1H-carbazol-3-yl)-isobutyramide] came in with an EC50 in data set [1] of 35.8 nM. The Emax in data set [1] (setting [3]) worked out at 80.9%. In data set [2], this compound displayed a Ki of 34.4 nM.
